From US20100016319A1, “ARYLMETHYLENE UREA DERIVATIVE AND USE THEREOF” (TORAY INDUSTRIES, INC. a corporation of Japan, priority 2005, published 2010)

Assays:
[1] = system: TNFα production in human whole blood; test: Inhibitory activity on LPS-induced TNFα production in human whole blood; format: cell-based; conditions: LPS stimulation, 37° C., 5 hours
Experimental: Inhibitory activities of the arylmethylene urea derivatives according to the present invention to the production of TNFα induced by stimulation with a lipopolysaccharide (LPS) were investigated using human whole blood.
After mixing each of the compounds of the present invention with human blood in a 96-well flat-bottom plate, the lipopolysaccharide (LPS) was added and the mixture was allowed to react at 37° C. for 5 hours. After the reaction, the resulting mixture was centrifuged at room temperature for 15 minutes, and supernatant of the resultant was recovered. For the quantification of TNFα in the supernatant, human cytokine kit (CIS biointernational) was used.

[2] = system: DSS-induced colitis; test: Dextran sulfate sodium (DSS)-induced colitis model of mice, rectal bleeding score; format: in vivo, BALB/c mice; conditions: 30 mg/kg orally every day from Day 27 to Day 31
Experimental: (§1) Female BALB/c mice (Japan SLC) of 7 to 9 weeks old were allowed to freely drink 3 w/v % dextran sulfate sodium (DSS) for 5 to 7 days, and then to freely drink sterilized distilled water for 5 days. This procedure was repeated 3 times to induce colitis. The uninduced (background) group was allowed to freely drink sterilized distilled water. The compound described in Example 2 was orally administered to the mice at a dose of 30 mg/kg every day from Day 27 to Day 31 counted from the start of the test, and rectal bleeding was scored (0: occult blood-negative, 2: occult blood-positive, 4: apparent bleeding) by using the method described by Murthy et al (see, for example, Dig Dis Sci., 38, 1722 (1993)).
(§2) On the other hand, the same test as in Example 452 was repeated except that 1-(4-(pyridin-4-yloxy)benzyl)-3-(3-t-butylisoxazol-5-yl)urea (the structural formula thereof is shown below) which is a compound included in WO 04/037789 was used in place of the compound of Example 2. The score on Day 32 (the last day of the test) of the colitis-uninduced group was 0, while the score of the colitis-induced group rose to 1.2±0.2.
as §1, with “Example 10” for “Example 2”
as §2, with “Example 453” for “Example 452”, “that 1-(4-(pyridin-4-yloxy)benzyl)-3-([…])urea” for “that 1-(4-(pyridin-4-yloxy)benzyl)-3-(3-t-butylisoxazol-5-yl)urea”, “Example 10.” for “Example 2.”

[3] = system: rhythmic bladder contractions; test: Rhythmic bladder contractions model in anesthetized rats; format: in vivo, SD rats; conditions: i.v., from a dose of 3 mg/kg; 10 minutes before and after administration; FIG. 1
Text: Using anesthetized rat rhythmic bladder contractions model, the inhibitory effect of the arylmethylene urea derivatives of the present invention on the detrusor hyperreflexia was investigated.
Female SD rats were anesthetized with an intraperitoneal injection of urethane (1.0 g/kg). A polyethylene tube was inserted from external urethral orifice into the bladder and the tube was fixed by ligating. The other end of the tube was equipped with a three-necked cock, and one of the necks thereof was connected to a pressure transducer for the measurement of intravesical pressure and the other neck was connected to a syringe for the infusion of physiological saline into the bladder. Thirty minutes after the surgery was completed, physiological saline in appropriate volume was infused via the tube in order to induce rhythmic bladder contractions. After stable rhythmic bladder contractions were obtained, a solution of each test compound or the solvent thereof was administered from a caudal vein in a volume of 0.5 mL/kg, and the effect on the frequency of bladder contractions was investigated. As the test compounds, the compounds of Examples 2 and 9 were used.
In each of the figures, the ordinate indicates the number of rhythmic bladder contractions for 10 minutes before and after administration of the compound.

[4] = system: cyclophosphamide-induced cystitis rats; test: Cyclophosphamide-induced overactive bladder (cystitis) model in rats, cystometrogram; format: in vivo, SD rats; conditions: i.v., from a dose of 3 mg/kg; FIG. 3-A
Experimental: Using cyclophosphamide-induced cystitis rats known as an overactive bladder (pollakiuria) model based on the hyperactivity of afferent sensory C-fibers, the effect of compounds on the cystometrograms was investigated.
Female SD rats were pre-treated with cyclophosphamide (150 mg/kg) intraperitoneally one day before (18 hours before) the assay in order to induce cystitis. On the next day, each of rats was anesthetized with an intrapertoneral injection of urethane (1.0 g/kg). Next, a small incision was formed in the hypogastrium, and both ureters were ligated, followed by forming small incision in the ureters at the side of the kidney. Then, the bladder apex was incised and a polyethylene tube filled with physiological saline was inserted and indwelled. The other end of the tube was equipped with a three-necked cock, and one of the necks thereof was connected to a pressure transducer for the measurement of intravesical pressure and the other neck was connected to an infusion pomp in order to infuse physiological saline. Thirty minutes after the surgery was completed, physiological saline was continuously infused (3.6 mL/hr) in order to obtain a continuous cystometrograms. One minute before the infusion, a solution of each test compound or the solvent thereof was administered from a caudal vein in a volume of 0.5 mL/kg. […]

IC50 [1]: 720 nM
SMILES: Cc1ccc(-n2nc(C(C)(C)C)cc2NC(=O)NCc2ccccc2Oc2ccnc(N3CCOCC3)n2)cc1 [Example 2, 1-(2-(2-morpholinopyrimidin-4-yloxy)benzyl)-3-(3-t-butyl-1-p-tolyl-1H-pyrazol-5-yl)urea]
amelioration of symptoms / improvement in the rectal bleeding score (in words) ([2]; Day 32): apparent amelioration of symptoms was observed
rectal bleeding score on Day 32 (0: occult blood-negative, 2: occult blood-positive, 4: apparent bleeding) ([2]; female BALB/c mice, 3 w/v % DSS): 0.2±0.1
effect on the number of rhythmic bladder contractions [3]: inhibited the rhythmic bladder contractions dose-dependently
effect on the increase in the frequency of urination (voiding episodes during 20 minutes) [4]: dose-dependently reduced the increase in the frequency of urination
